Test results as given in patent US7309484B2, “Compositions and methods for screening antibacterial compounds” (priority 2003, dated 2007).
Converted amounts (≈) assume the structure as drawn. Like-named read-outs stand apart in the source and are kept apart here. Bridge positions count the residues as written; N and C are the ends. Square brackets hold non-standard residues; d marks the D form. Peptide text beside a SMILES is read from it. * marks the point of attachment. Ileψ(thiazoline)Cys = CC[C@H](C)[C@H](N)C1=N[C@H](C(=O)*)CS1; dOrn = NCCC[C@@H](N)C(=O)O

Tests used:
Assay type in all cases: cell-based, Bacillus subtilis
[1] = tested on: B. subtilis liaH mutant HB0920 gene expression; test: microbe, parasite or virus in culture; conditions: for fold induction at 100 µg/mL: Bacillus subtilis; for Fold induction 15 min / Fold induction 5 min: 100 μg/mL, listed as zinc-bacitracin
Description: The bacitracin stimulon of B. subtilis was examined using global transcriptome analysis. […] Under most conditions tested, about 60-70 genes were induced greater than 5-fold. […] The scatter-plot represents the data sets obtained for strain HB0920 (yvqH was still detected as bacitracin-inducible due to the presence of a remaining region near the 5′-end of the gene). […] Members of the σ^M (white open squares) and σ^B (small black triangles) regulon are highlighted. All other gene signals are represented as small gray diamonds. Note that for the generation of this graphical display the data sets could not be filtered to remove low quality and non-reproducible signals, thus some of the background signals (small gray diamonds) that appear to represent highly regulated genes are not significant.
The liaH-deletion mutant was included in the analysis because the well-characterized LiaH-homologue in E. coli, PspA, functions as a repressor of transcription (Adams et al., 2003, J Bacteriol. 185: 1174-1180; Bordes et al., 2003, Proc Natl Acad Sci USA. 100: 2278-2283, the entire teachings of which are incorporated herein by reference). […] Similar results were obtained with CU1065.
For microarray analysis 100 mL of LB medium were inoculated from a fresh overnight LB-plate and incubated at 37° C. with aeration until the culture reached an O.D.600≈0.45, when the culture was split: 30 mL served as an un-induced control. To the remaining culture bacitracin was added to a final concentration of 100 μg/mL and 30 mL samples were taken 5 and 15 min after addition. The cells were harvested by centrifugation at room temperature and cell pellets were shock frozen and stored at −70° C. for at least 30 min. […] After extraction the RNA was purified using the RNA clean-up protocol of the RNeasy kit (Qiagen) with on-column DNase treatment in order to remove abundant small RNA molecules (tRNAs and 5S rRNA) and residual genomic DNA.
Each slide contains 9220 features corresponding to duplicate copies of each open reading frame, additional PCR products for some ORFs, rRNA genes, and other controls. RNA preparations were used to synthesize Cy3- and Cy5-labeled cDNA and hybridization was performed as described (Ye et al., 2000, J Bacteriol. 182: 4458-4465; Ye et al., 2001, J Microbiol Methods. 47: 257-272, the entire teaching of which are incorporated herein by reference). All comparisons were performed twice (once each with Cy3 and Cy5) to control for possible differences in labeling efficiency between fluorophores. Fluorescent signal intensity data was quantified using ArrayVision software (Molecular Dynamics) and normalized to the total detectable mRNA. Mean fluorescence intensity is set to 1.0 with a value of 0.1 corresponding to background. Each expression ratio is represented by at least four separate measurements (duplicate spots on each of two slides).

[2] = tested on: B. subtilis CU1065 and isogenic deletion mutants; test: Minimal inhibitory concentration (MIC), microtiter-plate assay; conditions: for MIC: Bacillus subtilis
Description: Since B. subtilis is closely related to the bacitracin-producing strains, it seemed likely that a similar system as described for B. licheniformis could exist in CU1065. The identification of two loci encoding ABC transporters that are under the bacitracin-inducible control of a two-component system supported this hypothesis. […] All strains were grown in microtiter-plates for 4 hours after dilution into LB medium containing the indicated concentrations of bacitracin. The experiment was done in triplicate and a representative result is shown. Strains used were: CU1065 (black squares), ‘bacR’ (HB0927, open diamonds), ‘bacAB’ (HB0928, black diamonds), ‘sigM’ (HB0031, open circles), ‘bcrC’ HB0106 (closed circles), ‘bcrC/bacAB’ (HB0937, black triangle). Compare also with Table 1.
Determination of the minimal inhibitory concentration (MIC): MIC-assays were performed in microtiter plates using a ‘Tecan Spectra Rainbow’ microtiter plate reader. […] Tenfold dilution of these cultures were inoculated in a total volume of 200 μl/well with increasing quantities of bacitracin, ranging from 0.01 to 1000 μg/mL (final concentration). The plates were incubated at 37° C. and the O.D.600 was read after 4 hours, when cultures had reached their final cell density. All experiments were performed in triplicate.

[3] = tested on: liaH expression (liaH::pMUTIN, strain BFS2469); test: Quantitative β-galactosidase assay, strain BFS2469; conditions: bacitracin 100 μg/mL, 30 minutes
Description: Specifically, cultures of B. subtilis strain BFS2469 (liaH::pMUTIN) and BFS2470 (liaI::pMUTIN) were grown in LB medium to midlog phase, 2 mL for the un-induced control sample were harvested, and the remaining culture was induced with the three antibiotics for 30 minutes, before the cells of the induced sample were harvested. All samples were taken in duplicate from two independent cultures and the standard deviation is indicated by error bars.
Measurement of induction by β-galactosidase assays: Cells were inoculated from fresh overnight LB-plates and grown in LB-medium at 37° C. with aeration until they reached an O.D.600=0.45. 2 mL of cultures were harvested (un-induced control) and the cell pellets were shock frozen and kept at −70° C. The cultures were induced by addition of antibiotics to a final concentration of: bacitracin (100 μg/mL), tunicamycin (50 μg/mL) or vancomycin (2 μg/mL) and incubated for additional 30 min at 37° C. 2 mL of the cultures were harvested as described above (induced sample). The pellets were re-suspended in 1 mL of working buffer and assayed for β-galactosidase activity as described with normalization to cell density (Miller, 1972, the entire teaching of which is incorporated herein by reference).

## CC[C@H](C)[C@H](N)C1=N[C@H](C(=O)N[C@@H](CC(C)C)C(=O)N[C@H](CCC(=O)O)C(=O)N[C@H](C(=O)N[C@H]2CCCCNC(=O)[C@H](CC(N)=O)NC(=O)[C@@H](CC(=O)O)NC(=O)[C@H](Cc3cnc[nH]3)NC(=O)[C@@H](Cc3ccccc3)NC(=O)[C@H]([C@@H](C)CC)NC(=O)[C@@H](CCCN)NC2=O)[C@@H](C)CC)CS1 [Bacitracin] ({Ileψ(thiazoline)Cys}-L[dE]IK[dOrn]I[dF]H[dD]N; lactam 4-C)
[1]; 5 min, read-out: Fold induction 5 min, gene bcrC, 100 μg/mL, 5 min
  fold induction at 100 µg/mL: ~10
[1]; 5 min, read-out: Fold induction 5 min, gene cadA (yvgW), 100 μg/mL, 5 min
  fold induction at 100 µg/mL: 58
[1]; 5 min, read-out: Fold induction 5 min, gene cotY, 100 μg/mL, 5 min
  fold induction at 100 µg/mL: 9.4
[1]; 5 min, read-out: Fold induction 5 min, gene czcD, 100 μg/mL, 5 min
  fold induction at 100 µg/mL: 61
[1]; 5 min, read-out: Fold induction 5 min, gene czcO (trkA), 100 μg/mL, 5 min
  fold induction at 100 µg/mL: 33
[1]; 5 min, read-out: Fold induction 5 min, gene ydhK, 100 μg/mL, 5 min
  fold induction at 100 µg/mL: 12
[1]; 5 min, read-out: Fold induction 5 min, gene yetG, 100 μg/mL, 5 min
  fold induction at 100 µg/mL: 1.4
[1]; 5 min, read-out: Fold induction 5 min, gene ykvS, 100 μg/mL, 5 min
  fold induction at 100 µg/mL: 5.9
[1]; 5 min, read-out: Fold induction 5 min, gene ytzB, 100 μg/mL, 5 min
  fold induction at 100 µg/mL: 2.8
[1]; 5 min, read-out: Fold induction 5 min, gene yybR, 100 μg/mL, 5 min
  fold induction at 100 µg/mL: 5.4
[1]; 5 min, read-out: Fold induction 5 min, gene(s) bacAB (ytsCD), 100 μg/mL, 5 min
  fold induction at 100 µg/mL: 280
[1]; 5 min, read-out: Fold induction 5 min, gene(s) gerAA/AB, 100 μg/mL, 5 min
  fold induction at 100 µg/mL: 7.1
[1]; 5 min, read-out: Fold induction 5 min, gene(s) ycgRQ, 100 μg/mL, 5 min
  fold induction at 100 µg/mL: 6.7
[1]; 5 min, read-out: Fold induction 5 min, gene(s) ygaCD, 100 μg/mL, 5 min
  fold induction at 100 µg/mL: 2
[1]; 5 min, read-out: Fold induction 5 min, gene(s) yhcYZ-yhdA, 100 μg/mL, 5 min
  fold induction at 100 µg/mL: 20
[1]; 5 min, read-out: Fold induction 5 min, gene(s) yjbIH, 100 μg/mL, 5 min
  fold induction at 100 µg/mL: 5.2
[1]; 5 min, read-out: Fold induction 5 min, gene(s) ykuNOP, 100 μg/mL, 5 min
  fold induction at 100 µg/mL: 1.4
[1]; 5 min, read-out: Fold induction 5 min, gene(s) ytrBCDEF, 100 μg/mL, 5 min
  fold induction at 100 µg/mL: 9.1
[1]; 5 min, read-out: Fold induction 5 min, gene(s) yvcRS, 100 μg/mL, 5 min
  fold induction at 100 µg/mL: 12
[1]; 5 min, read-out: Fold induction 5 min, gene(s) yvqGFEC, 100 μg/mL, 5 min
  fold induction at 100 µg/mL: 6
[1]; 5 min, read-out: Fold induction 5 min, gene(s) yvqIH, 100 μg/mL, 5 min
  fold induction at 100 µg/mL: 772
[1]; 0.25 h, read-out: Fold induction 15 min, gene bcrC, 100 μg/mL, 15 min
  fold induction at 100 µg/mL: ~10
[1]; 0.25 h, read-out: Fold induction 15 min, gene cadA (yvgW), 100 μg/mL, 15 min
  fold induction at 100 µg/mL: 9.8
[1]; 0.25 h, read-out: Fold induction 15 min, gene cotY, 100 μg/mL, 15 min
  fold induction at 100 µg/mL: 5.9
[1]; 0.25 h, read-out: Fold induction 15 min, gene czcD, 100 μg/mL, 15 min
  fold induction at 100 µg/mL: 3.8
[1]; 0.25 h, read-out: Fold induction 15 min, gene czcO (trkA), 100 μg/mL, 15 min
  fold induction at 100 µg/mL: 2.8
[1]; 0.25 h, read-out: Fold induction 15 min, gene ydhK, 100 μg/mL, 15 min
  fold induction at 100 µg/mL: 4.4
[1]; 0.25 h, read-out: Fold induction 15 min, gene yetG, 100 μg/mL, 15 min
  fold induction at 100 µg/mL: 10
[1]; 0.25 h, read-out: Fold induction 15 min, gene ykvS, 100 μg/mL, 15 min
  fold induction at 100 µg/mL: 10
[1]; 0.25 h, read-out: Fold induction 15 min, gene ytzB, 100 μg/mL, 15 min
  fold induction at 100 µg/mL: 11
[1]; 0.25 h, read-out: Fold induction 15 min, gene yybR, 100 μg/mL, 15 min
  fold induction at 100 µg/mL: 3.7
[1]; 0.25 h, read-out: Fold induction 15 min, gene(s) bacAB (ytsCD), 100 μg/mL, 15 min
  fold induction at 100 µg/mL: 360
[1]; 0.25 h, read-out: Fold induction 15 min, gene(s) gerAA/AB, 100 μg/mL, 15 min
  fold induction at 100 µg/mL: 4.2
[1]; 0.25 h, read-out: Fold induction 15 min, gene(s) ycgRQ, 100 μg/mL, 15 min
  fold induction at 100 µg/mL: 7.9
[1]; 0.25 h, read-out: Fold induction 15 min, gene(s) ygaCD, 100 μg/mL, 15 min
  fold induction at 100 µg/mL: 12
[1]; 0.25 h, read-out: Fold induction 15 min, gene(s) yhcYZ-yhdA, 100 μg/mL, 15 min
  fold induction at 100 µg/mL: 14
[1]; 0.25 h, read-out: Fold induction 15 min, gene(s) yjbIH, 100 μg/mL, 15 min
  fold induction at 100 µg/mL: 7.1
[1]; 0.25 h, read-out: Fold induction 15 min, gene(s) ykuNOP, 100 μg/mL, 15 min
  fold induction at 100 µg/mL: 12
[1]; 0.25 h, read-out: Fold induction 15 min, gene(s) ytrBCDEF, 100 μg/mL, 15 min
  fold induction at 100 µg/mL: 9.7
[1]; 0.25 h, read-out: Fold induction 15 min, gene(s) yvcRS, 100 μg/mL, 15 min
  fold induction at 100 µg/mL: 24
[1]; 0.25 h, read-out: Fold induction 15 min, gene(s) yvqGFEC, 100 μg/mL, 15 min
  fold induction at 100 µg/mL: 7
[1]; 0.25 h, read-out: Fold induction 15 min, gene(s) yvqIH, 100 μg/mL, 15 min
  fold induction at 100 µg/mL: 1060
[1]; gene bcrC
  Fold induction 15 min: 9.5 fold
[1]; gene(s) bacAB (ytsCD), 5 min
  Fold induction 5 min: 282 fold
[1]; gene(s) bacAB (ytsCD)
  Fold induction 15 min: 365 fold
[1]; gene(s) yhcYZ-yhdA, 5 min
  Fold induction 5 min: 21 fold
[1]; gene(s) yvcRS
  Fold induction 15 min: 25 fold
[1]; gene(s) yvqGFEC, 5 min
  Fold induction 5 min: 6.1 fold
[2]; 4 h, read-out: Bacitracin MIC, mutant in bacAB (ytsCD), LB, 4 hours
  MIC: 10 µg/mL (≈ 7.03 µM)
[2]; 4 h, read-out: Bacitracin MIC, mutant in bcrC, LB, 4 hours
  MIC: 25 µg/mL (≈ 17.6 µM)
[2]; read-out: bacitracin-resistance (MIC), bcrC/bceAB double mutant (HB0937)
  MIC: 2.5 µg/mL (≈ 1.76 µM)
[2]; read-out: bacitracin-resistance (MIC), wild type strain (CU1065)
  MIC: 500 µg/mL (≈ 351 µM)
[2]; bceAB deletion
  reduction in MIC compared to CU1065: 50 fold
[2]; bceR deletion
  reduction in MIC compared to CU1065: 50 fold
[2]; bcrC/bceAB double mutant
  decrease of bacitracin-resistance compared to the wild type strain: 200 fold
[3]
  fold increase in liaH expression: 90 fold
